Results: US20230183643A1, “COMPOSITIONS AND METHODS FOR PRODUCING PLACENTAL CELLS” (Regents of the University of Minnesota, priority 2021, published 2023)
“Also recorded” adds a separate entry of the source.

Experiments:
Assay type in all cases: cell-based, human
[1] = tested on: IMR-90-4 hiPSCs; assay: PCR and qRT-PCR of trophoblast cell marker transcripts and C19 miRNAs; conditions: for CDX2 mRNA transcript level (PCR / RT-PCR): after 5 days in UM with 1 μM RA, 8 μM CHIR, RA+CHIR or 1 μM SU6656; for CDX2 transcript level (qRT-PCR) / GATA3 transcript level (qRT-PCR) / KLF4 transcript level (qRT-PCR) / KRT7 transcript level (qRT-PCR): 5 days of incubation, compared to UM alone (FIG. 10)
Method: For differentiation, 70% confluent stem cells were rinsed with DPBS (Gibco) and pre-warmed Accutase was added to the wells. Cells were then placed at 37° C. for 5-7 minutes. Following incubation, cells were removed from the well with a p1000 pipette. The cells in Accutase solution were then added to a conical tube containing an equal volume of fresh media and spun down at 200×g for 5 minutes. The cells were then resuspended and seeded on Matrigel-coated plates at 6,000 cells/cm^2 in TeSR-E8 or mTeSR Plus with 5 μM ROCK inhibitor (Y-27632, Stem Cell Tech). Cells were maintained in E8 or mTeSR Plus for two more days, and then the medium was changed to unconditioned medium (UM): […] RA and/or CHIR were excluded in control experiments (FIG. 1), as described. Cell culture media was changed daily for five days. The induced multipotent placental cells produced by this method are termed iMPC1 cells (also referred herein, as iMPC1-D5 cells). As described herein, the cells may alternatively be exposed to RA+CHIR for 3 or 4 days. For example, iMPC1-D3 and iMPC1-D4, may also be produced wherein the cells are exposed to RA+CHIR for 3 and 4 days, respectively. Cell pellets were collected and lysed using QiaShredder columns (Qiagen). RNA was isolated using the RNeasy Mini Kit (Qiagen) as the manufacturer recommends, including incubation with DNase I (RNAse-free DNase Set, Qiagen). Collected RNA was quantified using a NanoDrop. Reverse transcription was performed on 1000 ng RNA using the Omni script RT Kit (Qiagen). RNA with Oligo-dT primer (Life Tech) was denatured for 5 minutes at 65° C. before the remaining elements were added and incubated at 37° C. for 1 hour. Quantitative real time PCR (qRT-PCR) was performed using iTaq Universal SYBR Green Supermix (Bio Rad) as the manufacturer recommends. Primers (Table 2) were added at 250 nM each (forward and reverse). Analysis was performed on a Bio Rad CFX Connect Real-Time PCR system. GAPDH was used as a reference gene, and error was propagated using the […] method. PCR was performed identically as above through the reverse transcription step to generate cDNA. GoTaq Master Mix (Promega) was used for PCR per the manufacturer's instructions. Primers (Table 2) were added at […] each. PCR products were visualized on a 2% agarose gel containing SYBR Safe (Thermo Fisher) after electrophoresis at […] for 100 minutes. Gels were imaged using a ChemiDoc Touch Gel/Blot Reader (Bio Rad).

[2] = tested on: IMR-90-4 hiPSCs; assay: Immunostaining for pluripotency and lineage-specific markers after treatment; conditions: for Keratin 8 expression (immunostaining): UM+1 μM RA or UM+1 μM SU6656; for CDX2 protein expression (immunostaining): after 5 days incubation, 1 μM RA, 8 μM CHIR-99021, 1 μM SU6656 or RA+CHIR in UM or E6
Method: For differentiation, 70% confluent stem cells were rinsed with DPBS (Gibco) and pre-warmed Accutase was added to the wells. Cells were then placed at 37° C. for 5-7 minutes. Following incubation, cells were removed from the well with a p1000 pipette. The cells in Accutase solution were then added to a conical tube containing an equal volume of fresh media and spun down at 200×g for 5 minutes. The cells were then resuspended and seeded on Matrigel-coated plates at 6,000 cells/cm^2 in TeSR-E8 or mTeSR Plus with 5 μM ROCK inhibitor (Y-27632, Stem Cell Tech). Cells were maintained in E8 or mTeSR Plus for two more days, and then the medium was changed to unconditioned medium (UM): […] RA and/or CHIR were excluded in control experiments (FIG. 1), as described. Cell culture media was changed daily for five days. The induced multipotent placental cells produced by this method are termed iMPC1 cells (also referred herein, as iMPC1-D5 cells). As described herein, the cells may alternatively be exposed to RA+CHIR for 3 or 4 days. For example, iMPC1-D3 and iMPC1-D4, may also be produced wherein the cells are exposed to RA+CHIR for 3 and 4 days, respectively. For immunocytochemistry analysis, cells were rinsed 2× with PBS and then fixed for 10 minutes with 4% paraformaldehyde (PFA) at room temperature. […] Primary antibodies (Table 1A) were diluted into PBSGT and incubated on cells overnight at 4° C. Cells were washed 3× in PBST for 15 minutes, and then secondary antibodies (Table 1B) were diluted 1:500 in PBSGT and incubated on the cells for 1 hour at room temperature. Following a 10-minute PBS wash, cells were incubated with a DAPI solution for 10 minutes. Another 10-minute PBS wash was performed before the cells were imaged on an EVOS microscope.

[3] = tested on: IMR-90-4 hiPSCs; assay: Flow cytometry of CDX2, Oct-4, GATA3 and Keratin 7 in hiPSCs differentiated with RA and/or CHIR; conditions: 5 days in UM, 1 μM RA with or without 8 μM CHIR
Method: For differentiation, 70% confluent stem cells were rinsed with DPBS (Gibco) and pre-warmed Accutase was added to the wells. Cells were then placed at 37° C. for 5-7 minutes. Following incubation, cells were removed from the well with a p1000 pipette. The cells in Accutase solution were then added to a conical tube containing an equal volume of fresh media and spun down at 200×g for 5 minutes. The cells were then resuspended and seeded on Matrigel-coated plates at 6,000 cells/cm^2 in TeSR-E8 or mTeSR Plus with 5 μM ROCK inhibitor (Y-27632, Stem Cell Tech). Cells were maintained in E8 or mTeSR Plus for two more days, and then the medium was changed to unconditioned medium (UM): DMEM/F12 with 20% Knockout serum replacement, MEM non-essential amino acids (1×), GlutaMAX (lx, Life Tech), and 0.1 mM β-mercaptoethanol (Sigma), containing 1 μM retinoic acid (RA, Sigma) and […] (Tocris). RA and/or CHIR were excluded in control experiments (FIG. 1), as described. Cell culture media was changed daily for five days. The induced multipotent placental cells produced by this method are termed iMPC1 cells (also referred herein, as iMPC1-D5 cells). […]
Cells were rinsed 2× with PBS and then pre-warmed Accutase was added to the wells. […] Plots shown are representative of a single independent replicate, but medians and standard deviations were calculated from three independent replicates.

SMILES	CDX2 mRNA transcript level (PCR / RT-PCR) [1]	Keratin 8 expression (immunostaining) ([2]; 5 days)	CDX2 protein expression (immunostaining) [2]	CDX2 transcript level (qRT-PCR) [1]	GATA3 transcript level (qRT-PCR) [1]	KLF4 transcript level (qRT-PCR) [1]	KRT7 transcript level (qRT-PCR) [1]	interquartile range (IQR) of CDX2 expression (flow cytometry) [3]	CDX2 median expression intensity (flow cytometry) ([3]; p<0.001)	Keratin 18 (KRT18) expression (immunostaining) ([2]; 1 μM RA in UM, 5 days)	Oct-4 expression (immunostaining) ([2]; 1 μM RA in UM, 5 days)	lowest concentration tested which resulted in CDX2 expression ([2]; 5 days in UM, 0.1, 1 and 10 μM RA tested) [µM]
CN(C)S(=O)(=O)c1ccc2c(c1)/C(=C/c1cc3c([nH]1)CCCC3)C(=O)N2 [SU6656]	restricted to the RA condition	expressed in all conditions	restricted to the RA condition									
Cc1cnc(-c2cnc(NCCNc3ccc(C#N)cn3)nc2-c2ccc(Cl)cc2Cl)[nH]1 [CHIR-99021, 6-[[2-[[4-(2,4-Dichlorophenyl)-5-(5-methyl-1H-imidazol-2-yl)-2-pyrimidinyl]amino]ethyl]amino]-3-pyridinecarbonitrile]	low levels of CDX2 expression		unable to induce CDX2 protein expression	upregulating	compromised the expression	compromised the expression	compromised the expression					
CC1=C(/C=C/C(C)=C/C=C/C(C)=C/C(=O)O)C(C)(C)CCC1 [RA, retinoic acid]	heightened expression; also recorded: restricted to the RA condition	expressed in all conditions	gained expression; also recorded: restricted to the RA condition	upregulation	upregulation	upregulation	upregulation	119	1348±42	gained expression	lost expression	1
